Results reported in US20050142067A1, “Zintrodes, multitrodes and uses thereof” (priority 2003, published 2005).
“Also recorded” adds a separate entry of the source. Where two headings read alike, the source gives them in different places.

Assays:
holoCA = holoCA (Homo sapiens, UniProt P00918); experiment: Binding of fluorescent reporter to holoCA; settings: order of magnitude in words
Protocol: The measurement is based on a literature method (44, 51). Aliquots of a 1 μM solution of the CA protein are mixed with several concentrations of DPSA, ranging from 1 nM to 10 μM. After 30 minutes of incubation, the fluorescence emission spectrum is measured with excitation at 365 nm and emission at 400-700 nm. Taking the intensity at 560 nm, which is the emission max of an apoCA-DPSA conjugate, at the highest concentration aliquot to represent 99% fractional saturation, and 1% at the lowest concentration aliquot, the fractional saturation is plotted as a function of the DPSA concentration on a logarithmic scale, and the data is fit to a single binding isotherm, e.g. fraction bound=KD/(1+KD) using Kaleidagraph (Synergy Software), or a similar program.
Because of the nature of the sulfonamide binding as a fourth ligand to the active site, DPSA binds as a 1:1 complex at realistic aliquot concentrations. If the fractional saturation is not near 1.0 at higher DPSA concentration because the DPSA binds more weakly to the variant, the curvature of the isotherm will not reach the peak intensity.

[1] = Leakage of reporter through microdialysis membrane; type: physicochemical; settings: microdialysis chamber (sock), HEPES external medium
Protocol: A solution of DPSA was placed in the “sock” and the fluorescence of DPSA inside the dialysis chamber and in the external HEPES buffer solution was measured (FIG. 4A). The chamber was then filled with 10 μM apoCA and the external solution with […] HEPES buffer and 10 μM free zinc (FIG. 4B). Since the microdialysis membrane is impermeable to apoCA, any zinc that passes through the membrane is then trapped inside upon binding to apoCA. […] For example, if free zinc in the biological medium is 2 nM, then 0.90 nM zinc will be trapped within the “sock.”
However, DNSA “leaks out” of the membrane. DNSA reporter was covalently bound to amino-CPG beads using a 12 C or a 14 C tether and placed into the microdialysis membrane or “sock”. […] The DNSA-CPG bead system comprises a “molecular tether” means of entrapment (FIG. 7).

CA-Zn (holoCA) = CA-Zn (holoCA) (Homo sapiens, UniProt P00918); experiment: Screening of fluorescent reporters with CA and zinc (fluorescence intensity)
Protocol: (§1) Stock solutions of the fluorescent reporter were prepared in alcohol and diluted 1000-fold in the final measuring cuvette. Carbonic anhydrase protein (CA) was “apo-ized” as per a standard procedure (50). Zinc was added to a solution of the CA in the presence of the reporter and the change in fluorescence intensity and wavelength of the reporter were measured on a Spex DM-1B fluorescence spectrophotometer using He—Cd laser excitation.

[2] = Spectral characteristics of reporters for CA-based zinc biosensor; type: physicochemical
Protocol: as §1

[3] = read-out: Kd for binding zinc; cited from earlier work
[4] = Fluorescence response to zinc of dye in micropolymer spots on glass slides; settings: dye in polymer on glass slide, HEPES pH ˜7.4, 500 μM Zn^2+
Protocol: A proprietary micropolymer was obtained from Gary Kiefer of DOW. Two fluorescence sensors were mixed individually with the micropolymer. One was TFLZN which has a Kd of 10 μM for binding zinc and which is strongly hydrophilic. The other was ZP1, which is more lipophilic, binds zinc with a Kd of 0.5 nM, and is very bright with a quantum yield of 0.9. After mixing, the two solutions were spotted onto acid-cleaned glass slides in spots of 2.5 and 10.0 μL and allowed to cure overnight.
To evaluate the coatings, one microliter of HEPES (50 mM, pH ˜7.4) was put onto one spot on the polymer/probe coatings and a second spot with one microliter of the same HEPES plus 1 microliter of ZnSO4 (final [Zn^2+], 500 μM) was put next to the first spot. Images of the both spots were captured using the exact same camera settings for both spots. […] When the actual fluorescent intensity of the spots was measured using Photoshop, it was observed that the zinc-added spot was from 4-5-fold brighter that the HEPES spot. […] The change in fluorescence was not timed, but in this microscope-measuring system, the change appeared essentially instantaneously, i.e., within the few seconds it took to put the slide back in place, re-focus the microscope, and capture the second image. […] Furthermore, washing the spots with pure HEPES again lowered the fluorescence back to essentially the pre-zinc levels. […]

[5] = pZn meter calibration with metal buffer (ZP1); type: binding; settings: 50 μM bicine metal buffer, [ZP1]=100 nM; read-out: KD, fluorescence intensity midpoint
Protocol: In calibrating the pZn meter using a metal buffer to control free zinc (FIG. 16A), the [ZP1] is <<than the effective [Zn2+ free] because the metal buffer, 50 μM bicine, can supply a large total number of Zn ions, while keeping the concentration of zinc ions fixed. Thus, in this calibration, the fluorescence intensity midpoint is approximately equal to the KD, 0.5 nM where [ZP1]=100 nM. In a second calibration, a ZP1 concentration of 20 nM of zinc, as ZnSO4, is used (FIG. 16B). Because no metal buffer is used and because the ZP1 concentration is much higher than the zinc concentration, this is a stoichiometric or “percent occupancy” titiration in which the fluorescence intensity is simply proportional to the molar ratio, [Zn]:[ZP1}.

[6] = cited from earlier work
rabbit brain = settings: 1 mM in dialysis fluid, 10 minutes infusion, anesthetized rabbits, dorsal hippocampus
Protocol: The microdialysis probes were aimed at the dorsal hippocampus in two acutely prepared rabbits, as described above, and the rabbits were anesthetized with isofluorane.
This caused spermine NONOate to release NO*, some of which presumably passed through the dialysis membrane and into the brain as a reverse dialysis procedure. The infusion lasted 10 minutes.

| binding to holoCA (holoCA) | increase of fluorescent yield upon binding to holo-CA (CA-Zn (holoCA)) | Abs max [2] | Emm max [2] | Molar ε [2] | Compound | leakage out of microdialysis membrane [1] | Kd [3] | fluorescence of zinc-added spot versus HEPES spot [4] | quantum yield ([6]; after zinc binding) | quantum yield ([6]; before zinc binding) | also measured |
| --- | --- | --- | --- | --- | --- | --- | --- | --- | --- | --- | --- |
| low micromole | 6 fold | 332 nm | 560 nm | 4.7 × 10^3 cm^−1M^−1 | CN(C)c1cccc2c(S(N)(=O)=O)cccc12 [DNSA, dansylamide] | leaks out |  |  |  |  |  |
| low picomole | 20 fold | 355 nm | 605 nm | 2.2 × 10^4 cm^−1M^−1 | CN(C)c1ccc(-c2cnc(-c3ccc(S(N)(=O)=O)cc3)o2)cc1 [DPSA, dapoxylsulfonamide] | membrane impermeable; also recorded: does not leak out |  |  |  |  | fluorescence intensity (CA-Zn (holoCA); 1 μM DPSA, alone or with the named CA): 70 units; absorption λmax [2]: 340 nm |

The next lines start with the compound.

| Compound | binding to holoCA (holoCA) | increase of fluorescent yield upon binding to holo-CA (CA-Zn (holoCA)) | Abs max [2] | Emm max [2] | Molar ε [2] | leakage out of microdialysis membrane [1] | Kd [3] | fluorescence of zinc-added spot versus HEPES spot [4] | quantum yield ([6]; after zinc binding) | quantum yield ([6]; before zinc binding) | also measured |
| --- | --- | --- | --- | --- | --- | --- | --- | --- | --- | --- | --- |
| COc1cc(NS(=O)(=O)c2ccc(C(=O)O)cc2)c2nc(C)ccc2c1 [TFLZN] |  |  |  |  |  |  | 10 µM | ~15 fold |  |  |  |
| O=C(O)c1ccccc1-c1c2cc(Cl)c(=O)c(CN(Cc3ccccn3)Cc3ccccn3)c-2oc2c(CN(Cc3ccccn3)Cc3ccccn3)c(O)c(Cl)cc12 [ZP1, 9-(o-carboxyphenyl)-2,7-dichloro-4,5-bis[bis(2-pyridylmethyl)-aminomethyl]-6-hydroxy-3-xanthanone] |  |  |  |  |  |  | 0.0005 µM | 4-5 fold | about 0.87 | about 0.39 | Kd [5]: ~0.5 nM; quantum yield ([6]; condition not stated): 0.9; excitation wavelength maximum ([6]; without zinc): 515 nm; excitation wavelength maximum ([6]; zinc bound): 507 nm |
| O=C(O)c1ccccc1-c1c2cc(Cl)c(=O)cc-2oc2c(CNc3ccccc3CN(Cc3ccccn3)Cc3ccccn3)c(O)ccc12 [ZP4, 9-(o-carboxyphenyl)-2-chloro-5-[2-{bis(2-pyridylmethyl)aminomethyl}-N-methylaniline]-6-hydroxy-3-xanthanone] |  |  |  |  |  |  |  |  | about 0.34 | about 0.06 | pKa value ([6]; relative to Zinpyr 1 and Zinpyr 2): lower |
| NCCCNCCCCN(CCCN)/[N+]([O-])=N/O [spermine NONOate] |  |  |  |  |  |  |  |  |  |  | release of free zinc into dialysate (rabbit brain): vigorous release of free zinc |
